# Source: patent US8232406B2, “c-MET protein kinase inhibitors” (Vertex Pharmaceuticals Incorporated, priority 2006, dated 2012)
# Biological target: c-MET (Homo sapiens, UniProt P08581)
# Assay: Ki determination for the inhibition of c-MET (standard radiometric 33P-ATP kinase assay, polyE4Y substrate)
# Type: biochemical
# Details: 1.0 nM c-Met, 35 μM ATP, 0.5 mg/mL polyE4Y, 20 min; competitive tight-binding fit
# Protocol: Ki Determination for the Inhibition of c-MET
# Compounds of the invention were screened for their ability to inhibit c-MET kinase activity using a standard radiometric assay. Briefly, in this kinase assay the transfer of the terminal ^33P-phosphate in ^33P-ATP to substrate polyE4Y is interrogated. The assay was carried out in 96-well plates to a final volume of 100 μL per well containing 1.0 nM c-Met, 100 mM HEPES (pH 7.5), 10 mM MgCl2, 25 mM NaCl, 0.01% BSA, 1 mM DTT, 0.5 mg/mL polyE4Y, and 35 μM ATP. Accordingly, compounds of the invention were dissolved in DMSO to make 10 mM initial stock solutions. Serial dilutions in DMSO were then made to obtain the final solutions for the assay. A 1.5 μL aliquot of DMSO or inhibitor in DMSO was added to each well. The reaction was initiated by the addition of ^33P-ATP and polyE4Y (obtained from Sigma). After 20 min, the reaction was quenched with 50 μL of 30% trichloroacetic acid (TCA) containing 4 mM ATP. The reaction mixture was transferred to the 0.66 mm GF filter plates (Corning) and washed three times with 5% TCA. Following the addition of 50 μL of Ultimate Gold™ high efficiency scintillant (Packard Bioscience), the samples were counted in a Packard TopCount NXT Microplate Scintillation and Luminescence Counter (Packard BioScience). The Ki values were calculated using Microsoft Excel Solver macros to fit the data to the kinetic model for competitive tight-binding inhibition.
# Chain of c-MET (P08581 25-1390): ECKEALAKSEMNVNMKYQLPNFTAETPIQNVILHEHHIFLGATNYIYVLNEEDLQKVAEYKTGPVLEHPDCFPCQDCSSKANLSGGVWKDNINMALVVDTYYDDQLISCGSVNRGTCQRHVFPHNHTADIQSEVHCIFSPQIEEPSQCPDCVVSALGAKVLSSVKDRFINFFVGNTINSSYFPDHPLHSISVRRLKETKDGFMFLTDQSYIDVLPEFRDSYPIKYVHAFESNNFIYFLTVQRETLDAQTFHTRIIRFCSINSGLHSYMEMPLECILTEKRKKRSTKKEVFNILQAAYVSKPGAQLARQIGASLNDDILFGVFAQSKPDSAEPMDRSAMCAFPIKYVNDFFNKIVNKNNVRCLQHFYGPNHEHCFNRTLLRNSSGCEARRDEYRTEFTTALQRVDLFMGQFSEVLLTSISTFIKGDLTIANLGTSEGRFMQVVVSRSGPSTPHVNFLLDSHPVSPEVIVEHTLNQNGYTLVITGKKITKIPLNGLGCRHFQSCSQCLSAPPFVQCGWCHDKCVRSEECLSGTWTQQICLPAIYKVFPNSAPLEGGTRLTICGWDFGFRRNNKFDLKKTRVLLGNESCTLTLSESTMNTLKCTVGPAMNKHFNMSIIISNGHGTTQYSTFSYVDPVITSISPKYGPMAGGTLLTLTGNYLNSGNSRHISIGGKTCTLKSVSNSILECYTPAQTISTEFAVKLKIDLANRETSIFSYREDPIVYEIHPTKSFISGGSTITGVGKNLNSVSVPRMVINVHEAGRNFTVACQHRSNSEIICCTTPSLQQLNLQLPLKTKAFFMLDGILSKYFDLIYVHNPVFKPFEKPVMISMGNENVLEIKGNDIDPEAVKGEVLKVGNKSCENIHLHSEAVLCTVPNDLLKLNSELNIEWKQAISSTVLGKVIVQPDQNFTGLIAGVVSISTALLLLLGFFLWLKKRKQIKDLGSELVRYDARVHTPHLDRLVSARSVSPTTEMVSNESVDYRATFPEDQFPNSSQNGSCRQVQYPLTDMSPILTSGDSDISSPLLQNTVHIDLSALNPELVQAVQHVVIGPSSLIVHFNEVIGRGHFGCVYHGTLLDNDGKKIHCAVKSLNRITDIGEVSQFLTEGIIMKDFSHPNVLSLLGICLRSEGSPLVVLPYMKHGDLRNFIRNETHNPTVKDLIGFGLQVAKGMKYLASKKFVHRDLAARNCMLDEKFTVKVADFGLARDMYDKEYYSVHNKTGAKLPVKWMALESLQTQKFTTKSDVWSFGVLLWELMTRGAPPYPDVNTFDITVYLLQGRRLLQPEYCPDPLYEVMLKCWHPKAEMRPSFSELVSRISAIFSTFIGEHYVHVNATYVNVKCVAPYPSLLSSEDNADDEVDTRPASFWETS
row,Ki [nM],Structure (SMILES)
1,100 to 1000,Nc1ncc(-c2cccnc2)nc1-c1nncn1-c1cccc(F)c1F [I-A-2]
2,100 to 1000,Nc1ncc(-c2ccncc2)nc1-c1nncn1-c1cccc(F)c1F [I-A-3]
3,100 to 1000,Nc1ncc(-c2ccc(N3CCCC3)nc2)nc1-c1nncn1-c1cccc(F)c1F [I-A-4]
4,≤ 100,Nc1ncc(-c2ccc(CN3CCOCC3)cc2)nc1-c1nncn1-c1cccc(F)c1F [I-A-5]
5,≤ 100,CN1CCN(Cc2ccc(-c3cnc(N)c(-c4nncn4-c4cccc(F)c4F)n3)cc2)CC1 [I-A-6]
6,≤ 100,CN1CCN(c2ccc(-c3cnc(N)c(-c4nncn4-c4cccc(F)c4F)n3)cc2)CC1 [I-A-7]
7,≤ 100,CN(C)Cc1ccc(-c2cnc(N)c(-c3nncn3-c3cccc(F)c3F)n2)cc1 [I-A-8]
8,≤ 100,CN1C[C@@H]2C[C@H]1CN2c1ccc(-c2cnc(N)c(-c3nncn3-c3cccc(F)c3F)n2)cc1 [I-A-9]
9,≤ 100,Nc1ccc(-c2cnc(N)c(-c3nncn3-c3cccc(F)c3F)n2)cc1 [I-A-10]
10,≤ 100,CC(=O)Nc1ccc(-c2cnc(N)c(-c3nncn3-c3cccc(F)c3F)n2)cc1 [I-A-11]
11,≤ 100,Nc1cccc(-c2cnc(N)c(-c3nncn3-c3cccc(F)c3F)n2)c1 [I-A-12]
12,≤ 100,Nc1ncc(-c2cnc3[nH]ccc3c2)nc1-c1nncn1-c1cccc(F)c1F [I-A-13]
13,100 to 1000,Nc1ncc(-c2ccncc2)nc1-c1nnc(O)n1-c1cccc(F)c1F [I-A-15]
14,100 to 1000,Nc1ncc(-c2ccc(CN3CCOCC3)cc2)nc1-c1nnc(O)n1-c1cccc(F)c1F [I-A-16]
15,100 to 1000,CN1CCN(c2ccc(-c3cnc(N)c(-c4nnc(O)n4-c4cccc(F)c4F)n3)cc2)CC1 [I-A-17]
16,100 to 1000,Nc1ncc(-c2ccc(N3CCCC3)nc2)nc1-c1nnc(O)n1-c1cccc(F)c1F [I-A-18]
17,≤ 100,CN1CCN(c2ccc(-c3cnc(N)c(-c4nnnn4-c4cccc(F)c4F)c3)cc2)CC1 [I-A-19]
18,100 to 1000,Nc1ncc(-c2cccnc2)cc1-c1nnnn1-c1cccc(F)c1F [I-A-20]
19,100 to 1000,CC(=O)c1cccc(-c2cnc(N)c(-c3nncn3-c3cccc(F)c3F)n2)c1 [I-A-29]
20,100 to 1000,N#Cc1cccc(-c2cnc(N)c(-c3nncn3-c3cccc(F)c3F)n2)c1 [I-A-30]
21,100 to 1000,CCOc1cccc(-c2cnc(N)c(-c3nncn3-c3cccc(F)c3F)n2)c1 [I-A-31]

row,Ki [nM],Structure (SMILES)
1,≤ 100,CS(=O)(=O)c1ccc(-c2cnc(N)c(-c3nncn3-c3cccc(F)c3F)n2)cc1 [I-A-32]
2,100 to 1000,Nc1ncc(-c2cnc3ccccc3c2)nc1-c1nncn1-c1cccc(F)c1F [I-A-33]
3,100 to 1000,Nc1ncc(-c2cccnc2)nc1-c1nncn1-c1cc(Cl)ccc1F [I-A-34]
4,100 to 1000,Nc1ncc(-c2cccnc2)cc1-c1nncn1-c1cccc(F)c1F [I-A-39]
5,100 to 1000,Nc1ncc(-c2ccc(N3CCCC3)nc2)cc1-c1nncn1-c1cccc(F)c1F [I-A-40]
6,100 to 1000,CN1CCN(c2ccc(-c3cnc(N)c(-c4nncn4-c4cccc(F)c4F)c3)cc2)CC1 [I-A-41]
7,100 to 1000,CN1CCN(Cc2ccc(-c3cnc(N)c(-c4nnc(O)n4-c4cccc(F)c4F)c3)cc2)CC1 [I-A-42]
8,≤ 100,CN1CCN(c2ccc(-c3cnc(N)c(-c4nnnn4-c4cccc(F)c4F)n3)cc2)CC1 [I-A-46]
9,≤ 100,CN(C)Cc1ccc(-c2cnc(N)c(-c3nnnn3-c3cccc(F)c3F)n2)cc1 [I-A-48]
10,≤ 100,CN1CCN(Cc2ccc(-c3cnc(N)c(-c4nnnn4-c4cccc(F)c4F)n3)cc2)CC1 [I-A-50]
11,≤ 100,Nc1ncc(-c2ccc(CN3CCOCC3)cc2)nc1-c1nnnn1-c1cccc(F)c1F [I-A-51]
12,≤ 100,Nc1nc2cc(F)c(-c3cnc(N)c(-c4nnnn4-c4cccc(F)c4F)n3)cc2[nH]1 [I-A-52]
13,100 to 1000,CCNC(=O)Nc1nc2cc(F)c(-c3cnc(N)c(-c4nnnn4-c4cccc(F)c4F)n3)cc2[nH]1 [I-A-53]
14,≤ 100,COc1cc2nc(N)[nH]c2cc1-c1cnc(N)c(-c2nnnn2-c2cccc(F)c2F)n1 [I-A-54]
15,100 to 1000,CCNC(=O)Nc1nc2cc(OC)c(-c3cnc(N)c(-c4nnnn4-c4cccc(F)c4F)n3)cc2[nH]1 [I-A-55]
16,≤ 100,Nc1nc2cc(F)c(-c3cnc(N)c(-c4nncn4-c4cccc(F)c4F)n3)cc2[nH]1 [I-A-56]
17,≤ 100,CCNC(=O)Nc1nc2cc(F)c(-c3cnc(N)c(-c4nncn4-c4cccc(F)c4F)n3)cc2[nH]1 [I-A-57]
18,≤ 100,"CN1CCN(Cc2ccc(-c3cnc(N)c(-c4nnnn4-c4cccc(F)c4F)c3)cc2)CC1 [I-A-62, 3-(1-(2,3-Difluorophenyl)-1H-tetrazol-5-yl)-5-(4-((4-methylpiperazin-1-yl)methyl)phenyl)pyridin-2-amine]"
19,≤ 100,CN(C)Cc1ccc(-c2cnc(N)c(-c3nnnn3-c3cccc(F)c3F)c2)cc1 [I-A-63]
20,≤ 100,Nc1ncc(-c2ccc(N3CCCC3)nc2)cc1-c1nnnn1-c1cccc(F)c1F [I-A-64]
21,≤ 100,Nc1ncc(-c2cccnc2)cc1-c1nccn1-c1cccc(Cl)c1Cl [I-A-65]

row,Ki [nM],Structure (SMILES)
1,≤ 100,CCN(CC)Cc1ccc(-c2cnc(N)c(-c3nnnn3-c3cccc(F)c3F)c2)cc1 [I-A-66]
2,≤ 100,Nc1ncc(-c2ccc(CN3CCCC3)cc2)cc1-c1nnnn1-c1cccc(F)c1F [I-A-67]
3,100 to 1000,Nc1cccc(-c2cnc(N)c(-c3nncn3-c3cccc(Cl)c3Cl)c2)c1 [I-A-68]
4,100 to 1000,COc1ccc(-c2cnc(N)c(-c3nncn3-c3cccc(Cl)c3Cl)c2)cc1 [I-A-69]
5,100 to 1000,Nc1ncc(-c2ccsc2)cc1-c1nncn1-c1cccc(Cl)c1Cl [I-A-70]
6,100 to 1000,Nc1ncc(-c2ccncc2)cc1-c1nncn1-c1cccc(Cl)c1Cl [I-A-71]
7,100 to 1000,CN(C)c1ccc(-c2cnc(N)c(-c3nncn3-c3cccc(Cl)c3Cl)c2)cc1 [I-A-72]
8,100 to 1000,CC(=O)Nc1cccc(-c2cnc(N)c(-c3nncn3-c3cccc(Cl)c3Cl)c2)c1 [I-A-73]
9,100 to 1000,Nc1ncc(-c2ccccc2)cc1-c1nncn1-c1cccc(Cl)c1Cl [I-A-74]
10,100 to 1000,Nc1ncc(-c2ccccc2O)cc1-c1nncn1-c1cccc(Cl)c1Cl [I-A-75]
11,100 to 1000,CC(=O)Nc1ccc(-c2cnc(N)c(-c3nncn3-c3cccc(Cl)c3Cl)c2)cc1 [I-A-76]
12,100 to 1000,COc1ccc(-c2cnc(N)c(-c3nncn3-c3cccc(Cl)c3Cl)c2)cc1OC [I-A-77]
13,100 to 1000,Nc1ncc(-c2ccc(CO)cc2)cc1-c1nncn1-c1cccc(Cl)c1Cl [I-A-78]
14,≤ 100,CN(C)Cc1ccc(-c2cnc(N)c(-c3nnnn3-c3cccc(Cl)c3Cl)c2)cc1 [I-A-79]
15,≤ 100,CC(=O)Nc1ccc(-c2cnc(N)c(-c3nnnn3-c3cccc(Cl)c3Cl)c2)cc1 [I-A-81]
16,100 to 1000,Nc1ncc(-c2ccc(N3CCCC3)nc2)cc1-c1nnnn1-c1cccc(Cl)c1Cl [I-A-82]
17,100 to 1000,Nc1ncc(-c2cccnc2)cc1-c1nnnn1-c1cccc(Cl)c1Cl [I-A-83]
18,100 to 1000,Nc1ncc(-c2ccncc2)cc1-c1nnnn1-c1cccc(Cl)c1Cl [I-A-84]
19,≤ 100,CN1CCN(c2ccc(-c3cnc(N)c(-c4nnnn4-c4cccc(Cl)c4Cl)c3)cc2)CC1 [I-A-85]
20,≤ 100,Nc1ccc(-c2cnc(N)c(-c3nnnn3-c3cccc(Cl)c3Cl)c2)cc1 [I-A-86]
21,≤ 100,NCc1cccc(-c2cnc(N)c(-c3nnnn3-c3cccc(Cl)c3Cl)c2)c1 [I-A-87]
